pEC50, pIC50: −log10 of the molar value. Square brackets hold non-standard residues; d marks the D form. Peptide text beside a SMILES is read from it. NMeY = CN[C@@H](Cc1ccc(O)cc1)C(=O)O; hLeu = CC(C)CC[C@H](N)C(=O)O; NMeA = CN[C@@H](C)C(=O)O; Nle = CCCC[C@H](N)C(=O)O; Orn = NCCC[C@H](N)C(=O)O

The target in the first experiment is T1, PD-1/PD-L1 (Homo sapiens, UniProt Q15116).
T1 construct: this kit uses ectodomains of PD-1 and PD-L1 that are expressed with orthogonal fusion tags (Tag-1 and Tag-2); purchased CisBio (currently Perkin-Elmer, Bedford, MA)
The experiment in a line: In vitro time-resolved FRET PD-1/PD-L1 binding assay (CisBio kit). The following applies: CisBio PD-1/PD-L1 binding kit, TR FRET, 96-well, 4-fold serial dilutions in triplicate, freshly dissolved peptides; read-out: IC50, inhibition of PD-1/PD-L1 binding (TR FRET assay). How it is done: Commercial PD-1/PD-L1 binding assay kit (CisBio, currently Perkin-Elmer, Bedford, MA) for time resolve fluorescent energy transfer (FRET) was used to assess peptides binding to PD-1. The assay for peptide screening was performed in a 96-well format (normal pressure), starting with 4-fold serial dilutions of each peptide in triplicate. No-peptide triplicate wells were used to assess fluorescent energy transfer in the absence of inhibition, and no-PD-1/PD-L1 triplicate wells were used to assess the background fluorescent energy transfer in the absence of PD-1/PD-L1 complexes. More detailed concentration dependences were obtained for selected peptides. Only freshly dissolved peptides were used in the assay. Various QSAR (quantitative structure activity relationship) hypotheses were tested by synthesizing batches of 10–12 peptides. In total, over one hundred candidates in ten iterations were screened for their ability to inhibit in vitro PD-1/PD-L1 binding using the commercial PD-1/PD-L1 binding assay kit (CisBio, currently Perkin-Elmer). Briefly, this kit uses ectodomains of PD-1 and PD-L1 that are expressed with orthogonal fusion tags (Tag-1 and Tag-2). It also includes two antibodies to selectively interact with these tags. The antibody against one tag is labeled with fluorescent moiety, which serves as a donor, while the other antibody is labeled with fluorescent moiety, which serves as an acceptor in fluorescent resonance energy transfer (FRET). When the complex is formed and probed with both anti-Tag-1 and anti-Tag-2 antibodies, donor and acceptor are sufficiently close, and FRET can be detected in a time-resolved (TR) manner. Inhibitors of PD-1/PD-L1 interactions prevent complex formation, leading to a decrease in TR FRET in a concentration-dependent manner, as shown in Figure 2 for four representative peptide inhibitors. Initial fourfold dilutions are exemplified by data for peptides B5.11 and B5.6 (panels A and B); examples of the more detailed follow-up concentration dependences are shown for peptides B2.4 and B2.22 (panels C and D). The potency of the inhibitors is then characterized by IC50, a concentration that inhibits TR FRET by 50%, allowing for a facile comparison of different inhibitors (Figure 2E).
For orientation: In TR-FRET formats the signal depends on donor and acceptor labels being close together.
Consider `CCCC[C@H](NC(=O)[C@@H](NC(=O)[C@H](CCCNC(=N)N)NC(C)=O)C(C)C)C(=O)N[C@H](C(=O)N[C@H](C(=O)N[C@H](C(=O)NCC(=O)N[C@@H](C)C(=O)N[C@@H](C)C(=O)N[C@@H](Cc1c[nH]c2ccccc12)C(=O)N[C@@H](CC(=O)O)C(=O)N[C@@H](Cc1ccc(O)cc1)C(=O)N[C@@H](CCCCN)C(=O)N[C@@H](Cc1ccc(O)cc1)C(N)=O)C(C)C)[C@@H](C)CC)C(C)C` [B2.4] (Ac-RV[Nle]VIVGAAWDYKY-NH2), for which the pIC50 is 6.30.

The same experiment, now with this note: CisBio PD-1/PD-L1 binding kit, TR FRET, 96-well, serial dilutions in triplicate; NI = no inhibition at maximum concentration tested (* 5 μM, ** 50 μM); read-out: EC50 (Supplementary Table S1; inhibition of PD-1/PD-L1 binding by in vitro TR-FRET assay).
In general, pEC50 refers to the negative decadic logarithm of the EC50, by convention in mol/L. For `CCCC[C@H](NC(=O)[C@@H](NC(=O)[C@H](CCCNC(=N)N)NC(C)=O)C(C)C)C(=O)N[C@H](C(=O)N[C@H](C(=O)N[C@H](C(=O)NCC(=O)N[C@@H](C)C(=O)N[C@@H](C)C(=O)N[C@@H](Cc1c[nH]c2ccccc12)C(=O)N[C@@H](CC(=O)O)C(=O)N[C@@H](Cc1ccc(O)cc1)C(=O)N[C@@H](CCCCN)C(=O)N[C@@H](Cc1ccc(O)cc1)C(N)=O)C(C)C)[C@@H](C)CC)C(C)C` [B2.4] (Ac-RV[Nle]VIVGAAWDYKY-NH2), the negative logarithm of the EC50 (pEC50) is 6.30.

Turning to `CCCC[C@H](NC(C)=O)C(=O)N[C@H](C(=O)N[C@@H](CC(C)C)C(=O)N[C@H](C(=O)N[C@H](C(=O)N[C@H](C(=O)NCC(=O)N[C@@H](C)C(=O)N[C@@H](C)C(=O)N[C@@H](Cc1c[nH]c2ccccc12)C(=O)N[C@@H](CC(=O)O)C(=O)N[C@@H](Cc1ccc(O)cc1)C(=O)N[C@@H](CCCCN)C(=O)N[C@@H](CCCNC(=N)N)C(N)=O)C(C)C)[C@@H](C)CC)C(C)C)C(C)C` [B2.5] (Ac-[Nle]VLVIVGAAWDYKR-NH2), the negative-log EC50 (pEC50) was 4.96.

In the case of `CCCC[C@H](NC(C)=O)C(=O)N[C@H](C(=O)N[C@@H](CC(C)C)C(=O)N[C@H](C(=O)N[C@H](C(=O)N[C@H](C(=O)NCC(=O)N[C@@H](C)C(=O)N[C@@H](C)C(=O)N[C@@H](Cc1c[nH]c2ccccc12)C(=O)N[C@@H](CC(=O)O)C(=O)N[C@@H](CCCNC(=N)N)C(=O)N[C@@H](CCCCN)C(=O)N[C@@H](Cc1ccc(O)cc1)C(N)=O)C(C)C)[C@@H](C)CC)C(C)C)C(C)C` [B2.16] (Ac-[Nle]VLVIVGAAWDRKY-NH2), the pEC50 is 6.00.

Turning to `CCCC[C@H](NC(=O)[C@@H](NC(=O)[C@H](CC(C)C)NC(=O)[C@@H](NC(=O)[C@H](CCCNC(=N)N)NC(C)=O)C(C)C)C(C)C)C(=O)N[C@H](C(=O)NCC(=O)N[C@@H](C)C(=O)N[C@@H](C)C(=O)N[C@@H](Cc1c[nH]c2ccccc12)C(=O)N[C@@H](CC(=O)O)C(=O)N[C@@H](Cc1ccc(O)cc1)C(=O)N[C@@H](CCCCN)C(=O)N[C@@H](Cc1ccc(O)cc1)C(N)=O)C(C)C` [B2.17] (Ac-RVLV[Nle]VGAAWDYKY-NH2), the pEC50 is 5.40.

Consider `CC(=O)N[C@@H](CCCNC(=N)N)C(=O)N[C@H](C(=O)N[C@@H](CCC(C)C)C(=O)N[C@H](C(=O)N[C@@H](CCC(C)C)C(=O)N[C@H](C(=O)NCC(=O)N[C@@H](C)C(=O)N[C@@H](C)C(=O)N[C@@H](Cc1c[nH]c2ccccc12)C(=O)N[C@@H](CC(=O)O)C(=O)N[C@@H](Cc1ccc(O)cc1)C(=O)N[C@@H](CCCCN)C(=O)N[C@@H](Cc1ccc(O)cc1)C(N)=O)C(C)C)C(C)C)C(C)C` [B2.27] (Ac-RV[hLeu]V[hLeu]VGAAWDYKY-NH2), for which the pEC50 is 5.74.

Turning to `CC[C@H](C)[C@H](NC(=O)[C@@H](NC(=O)[C@H](CC(C)C)NC(=O)[C@@H](NC(=O)[C@H](CCCNC(=N)N)NC(C)=O)C(C)C)C(C)C)C(=O)N[C@H](C(=O)NCC(=O)N[C@@H](C)C(=O)N[C@@H](C)C(=O)N[C@@H](CCC(C)C)C(=O)N[C@@H](CC(=O)O)C(=O)N[C@@H](Cc1ccc(O)cc1)C(=O)N[C@@H](CCCCN)C(=O)N[C@@H](Cc1ccc(O)cc1)C(N)=O)C(C)C` [B2.32] (Ac-RVLVIVGAA[hLeu]DYKY-NH2), the pEC50 is 4.66.

Regarding `CC(=O)N[C@@H](CCC(C)C)C(=O)N[C@H](C(=O)N[C@@H](CCC(C)C)C(=O)N[C@H](C(=O)NCC(=O)N[C@@H](C)C(=O)N[C@@H](C)C(=O)N[C@@H](Cc1c[nH]c2ccccc12)C(=O)N[C@@H](CC(=O)O)C(=O)N[C@@H](Cc1ccc(O)cc1)C(=O)N[C@@H](CCCCN)C(=O)N[C@@H](Cc1ccc(O)cc1)C(N)=O)C(C)C)C(C)C` [B3.3] (Ac-[hLeu]V[hLeu]VGAAWDYKY-NH2), the pEC50 was 4.46.

As to `CC[C@H](C)[C@H](NC(=O)[C@@H](NC(=O)[C@H](CC(C)C)NC(C)=O)C(C)C)C(=O)N[C@H](C(=O)NCC(=O)N(C)[C@@H](C)C(=O)N[C@@H](C)C(=O)N[C@@H](Cc1c[nH]c2ccccc12)C(=O)N[C@@H](CC(=O)O)C(=O)N[C@@H](Cc1ccc(O)cc1)C(=O)N[C@@H](CCCCN)C(=O)N(C)[C@@H](Cc1ccc(O)cc1)C(N)=O)C(C)C` [B3.10] (Ac-LVIVG[NMeA]AWDYK[NMeY]-NH2), the pEC50 is less than 4.30.

For `CC(=O)N[C@@H](CCC(C)C)C(=O)N[C@H](C(=O)N[C@@H](CCC(C)C)C(=O)N[C@H](C(=O)NCC(=O)N[C@@H](C)C(=O)N[C@@H](C)C(=O)N[C@@H](Cc1c[nH]c2ccccc12)C(=O)N[C@@H](CC(=O)O)C(=O)N[C@@H](CCCNC(=N)N)C(=O)N[C@@H](CCCCN)C(=O)N[C@@H](Cc1ccc(O)cc1)C(N)=O)C(C)C)C(C)C` [B3.20] (Ac-[hLeu]V[hLeu]VGAAWDRKY-NH2), the pEC50 was less than 5.30.

`CC(=O)N[C@@H](CCC(C)C)C(=O)N[C@H](C(=O)N[C@@H](Cc1c[nH]c2ccccc12)C(=O)N[C@H](C(=O)NCC(=O)N[C@@H](C)C(=O)N[C@@H](C)C(=O)N[C@@H](Cc1c[nH]c2ccccc12)C(=O)N[C@@H](CC(=O)O)C(=O)N[C@@H](CCCNC(=N)N)C(=O)N[C@@H](CCCCN)C(=O)N[C@@H](Cc1ccc(O)cc1)C(N)=O)C(C)C)C(C)C` [B3.21] (Ac-[hLeu]VWVGAAWDRKY-NH2): the pEC50 was less than 5.30.

Turning to `CC[C@H](C)[C@H](NC(=O)[C@@H](NC(=O)[C@H](CC(C)C)NC(C)=O)C(C)C)C(=O)N[C@H](C(=O)NCC(=O)N[C@@H](C)C(=O)N[C@@H](CCCN)C(=O)N[C@@H](Cc1c[nH]c2ccccc12)C(=O)N[C@@H](CC(=O)O)C(=O)N[C@@H](Cc1ccc(O)cc1)C(=O)N[C@@H](CCCCN)C(=O)N[C@@H](Cc1ccc(O)cc1)C(N)=O)C(C)C` [B3.22] (Ac-LVIVGA[Orn]WDYKY-NH2), the pEC50 was less than 5.30.

Turning to `CC(=O)N[C@@H](CCC(C)C)C(=O)N[C@H](C(=O)N[C@@H](Cc1c[nH]c2ccccc12)C(=O)N[C@H](C(=O)NCC(=O)N[C@@H](C)C(=O)N[C@@H](CCCN)C(=O)N[C@@H](Cc1c[nH]c2ccccc12)C(=O)N[C@@H](CC(=O)O)C(=O)N[C@@H](CCCNC(=N)N)C(=O)N[C@@H](CCCCN)C(=O)N[C@@H](Cc1ccc(O)cc1)C(N)=O)C(C)C)C(C)C` [B3.23] (Ac-[hLeu]VWVGA[Orn]WDRKY-NH2), the pEC50 is less than 5.30.

For the molecule `CCCC[C@H](NC(C)=O)C(=O)N[C@H](C(=O)N[C@H](C(=O)N[C@H](C(=O)NCC(=O)N[C@@H](C)C(=O)N[C@@H](C)C(=O)N[C@@H](Cc1c[nH]c2ccccc12)C(=O)N[C@@H](CC(=O)O)C(=O)N[C@@H](Cc1ccc(O)cc1)C(=O)N[C@@H](CCCCN)C(=O)N[C@@H](Cc1ccc(O)cc1)C(N)=O)C(C)C)[C@@H](C)CC)C(C)C` [B4.1] (Ac-[Nle]VIVGAAWDYKY-NH2), the pEC50 was less than 5.30.

For the molecule `CCCC[C@H](N)C(=O)N[C@H](C(=O)N[C@H](C(=O)N[C@H](C(=O)NCC(=O)N[C@@H](C)C(=O)N[C@@H](C)C(=O)N[C@@H](Cc1c[nH]c2ccccc12)C(=O)N[C@@H](CC(=O)O)C(=O)N[C@@H](Cc1ccc(O)cc1)C(=O)N[C@@H](CCCCN)C(=O)N[C@@H](Cc1ccc(O)cc1)C(=O)O)C(C)C)[C@@H](C)CC)C(C)C` [B4.2] (H-[Nle]VIVGAAWDYKY-OH; N-terminus and C-terminus assumed), the pEC50 was less than 5.30.

On to `CCCC[C@H](NC(C)=O)C(=O)N[C@H](C(=O)N[C@H](C(=O)N[C@H](C(=O)NCC(=O)N[C@@H](C)C(=O)N[C@@H](C)C(=O)N[C@@H](Cc1c[nH]c2ccccc12)C(=O)N[C@@H](CC(=O)O)C(=O)N[C@@H](CCCNC(=N)N)C(=O)N[C@@H](CCCCN)C(=O)N[C@@H](Cc1ccc(O)cc1)C(N)=O)C(C)C)[C@@H](C)CC)C(C)C` [B4.3] (Ac-[Nle]VIVGAAWDRKY-NH2), for which the pEC50 was less than 5.30.
